{"source": "patent US12060588B2", "about": "“Methods of editing DNA methylation” (Whitehead Institute for Biomedical Research, priority 2016, dated 2024)", "test_system": "RHOXF2 promoter region", "assay": "Comparison of dCas9- and TALE-based methylation editing, RHOXF2 promoter, bisulfite sequencing in HEK293T cells", "type": "cell-based", "description": "FIGS. 10A-10G depict comparison of TALE- and dCas9-based methylation editing. […] Transfection positive cell populations (cherry+) or (GFP+) were FACS sorted 48-hour post-transfection. Methylation levels of each individual CpG in the p16 promoter region were analyzed by bisulfite sequencing. Shown is the mean percentage±SD of two biological replicates with a total of 34 single colonies sequenced for dCas9-Dnmt3a and 31 single colonies sequenced for TALE-Dnmt3a. Red arrow indicates the position of p16 target gRNA, and purple arrow indicates the binding site for TALE-Dnmt3a. FIG. 10B depicts HEK293T cells were co-transfected with dCas9-Tet1 and one RHOXF2 target gRNA (with puro cassette) or TALE-Tet1 with a puro cassette expressing plasmid. Puromycin (2 ug/ml) was added to the culture medium to select for transfection positive cells. Cells were harvested after 2-day selection for analysis of methylation levels for individual CpGs in the RHOXF2 promoter region by bisulfite sequencing. Shown is the mean percentage±SD of two biological replicates with a total of 34 single colonies sequenced for dCas9-Tet1 and 38 single colonies sequenced for TALE-Tet1. Red arrow indicates the position of RHOXF2 target gRNA, and purple arrow indicates the binding site for […]. […]"}
{"substance": "dCas9-Tet1: catalytically inactive Cas9 (dCas9) fused through NLS to the Tet1 catalytic domain, SEQ ID NO: 159; lentivirally expressed with gRNAs", "values": [{"measurement": "region (effective range) of methylation decrease in the RHOXF2 promoter", "setting": "CpGs with change of methylation greater than 10%", "value": 150, "unit": "bp"}, {"measurement": "average decrease of methylation in the RHOXF2 promoter", "setting": "one single gRNA or TALE at the same site, 2-day puromycin selection", "value": 28, "unit": "%"}]}
